Experimental data published in a melting point compilation (Tetko et al.; mined from patent text by program, amines drawn as free bases though some values may be those of a salt).

Compound	melting point [°C]
CC1CCC(C(C)C)C(OC(=O)/C=C\C(=O)c2ccccc2)C1 (configuration not stated)	85 to 87
CC(=O)NC(C)Cc1cc(C)c(C)cc1CC#N (configuration not stated)	140 to 141
CC(=O)Oc1c(C(C)(C)C)cc2occc2c1C(C)(C)C	87.7
O=C1CCCN2N=C(c3ccc(Br)cc3)SC2=N1	204 to 207
CC1=C(CC(NC(=O)c2ccc(Cl)cc2)NC(=NC#N)Nc2cccnc2)C(C)(C)CCC1 (configuration not stated)	95 to 96
CCOc1noc2c1C(=O)CCC2	98 to 99
CCCCNc1c(C(=O)OCC)c(C)nc(S)c1[N+](=O)[O-]	140 to 142
Fc1ccc(-c2ccn(CC3CCCNC3)c2-c2ccncc2)cc1 (configuration not stated)	134 to 135
CC(C)Oc1cc(-c2[nH]c3cn[nH]c(=O)c3c2Cl)ccc1OC(F)F	248 to 262
CCCOC(=O)Nc1cn2nc(OCc3cc(C)ccc3C)ccc2n1	196 to 197
CC(C)S(=O)(=O)Nc1cccc2c3c([nH]c12)C(=O)CCC3	267 to 268
CCCCOC(=O)c1c(Cn2ccnc2)nc2cc(OC)c(OC)cc2c1-c1ccc(OC)c(OC)c1	140 to 141
CC(C)(C)c1cc(NC(=O)Nc2ccc(Cl)c(Cl)c2)[nH]n1	178 to 179
CC(C)(C)OC(=O)N1CC(CC(=O)CC(=O)OCc2ccc([N+](=O)[O-])cc2)C2NC(=O)C21 (configuration not stated)	107 to 110
O=c1[nH]cccc1Cc1ccccc1	158 to 160
CC(=O)NC(COc1ccccc1)C(=O)O (configuration not stated)	90 to 92
COCCNC(=S)n1nc(Oc2c(Cl)cc(C(F)(F)F)cc2Cl)cc1C	83 to 86
CC(C)(C)[Si](C)(C)OCCOc1cccnc1Br	81
CC(C)(CO)CCCCCC(O)CCCCC(C)(C)CO (configuration not stated)	79 to 80
CCOC(=O)C1=C(Nc2ccc(C(=O)OCC)cc2)OCC1=O	152 to 153
CC(C)n1ncc2c(N(C)N)ncnc21	105 to 108
COc1ccc(OCCOS(N)(=O)=O)cc1	84 to 87
O=C(N[C@@H]1CCc2cccc(N3CCNCC3)c2C1)c1ccc(N2CCOCC2)cc1	202 to 203
CN1CCN(c2cc(F)cc3c(=O)cc(C(=O)Nc4ccc(N5CCN(C(=O)OC(C)(C)C)CC5)cc4)oc23)CC1	219 to 220

Compound	melting point [°C]
CCOC(=O)c1c(=O)c2cc(F)c(Cl)cc2n2c(CN(C)C)csc12	276
Cc1ncnn1-c1ccccc1C#N	119 to 120
Nc1cc2[nH]c(=O)c(=O)[nH]c2cc1[N+](=O)[O-]	> 330
CC1N=C(N2CCN(CCO)CC2)NN=C1c1ccccc1 (configuration not stated)	103 to 105
CC(=O)N[C@@H](CC(C)C)C(=O)N[C@@H](CC(C)C)C(=O)N[C@H]1CCCOC1OC(C)=O (some centres not stated)	238 to 240
COC(=O)c1cc([N+](=O)[O-])c(Cl)c(S(=O)(=O)Cl)c1	92 to 94
COC(=O)CCCC#Cc1cc(Cl)ccc1NS(=O)(=O)c1sc(NC(C)=O)nc1C	147 to 149
CCCCCc1cc2c(nc(O)n2CC2CCN(S(C)(=O)=O)CC2)c(N)n1	228 to 231
O=CN=C1SCCN1Cc1ccc(Cl)nc1	99 to 100
CC(=O)c1cc(S(=O)(=O)c2cccc(F)c2)ccc1O	164 to 165
COP(=O)(Cc1ccc(CP(=O)(OC)OC)cc1)OC	106
CCCCCc1nnc(Sc2cc(O)c(C(C)(C)CC(C)(C)C)cc2O)n1-c1ccccc1	198
O=C(CCCCCNC(=O)CCc1ccco1)NO	127 to 128
CCC(C)C(NC(=O)OC)C(=O)NN(Cc1ccc(-c2cncs2)cc1)CC(O)C(Cc1ccccc1)NC(=O)C(NC(=O)OC)C(C)(C)C (configuration not stated)	139 to 141
COC(=O)c1nc(C)c2[nH]c3ccccc3c2c1I	280 to 286
O=C(O)/C=C/c1cccc(-c2nc3c(=O)n(CC4CCCCC4)c(=O)n(CC4CCCCC4)c3[nH]2)c1	> 350
CN1C(=O)C2(COc3cc4c(cc32)OCCO4)c2c(Oc3ccc(C(F)(F)F)cc3)cccc21 (configuration not stated)	198 to 201
CC(=O)Nc1ccc(Br)c2c1CCCC2	185 to 189
NC(=NCC(F)(F)F)Nc1ccnc(SCCCC(=O)NCCO)n1	148 to 150
COCc1c(C#CBr)ncc2[nH]c3cccc(OCc4ccccc4)c3c12	160
Cc1nc(N2C[C@@H](C)N(Cc3ccc(F)cc3)C2=O)sc1C(=O)NCc1cncs1	66 to 69
COc1cc(C(=O)OCCN(CCOC(=O)c2cc(OC)c(OC)c(OC)c2)CCS(=O)(=O)O)cc(OC)c1OC	178 to 182
O=C(O)Cn1c(=O)c(=O)[nH]c2c([N+](=O)[O-])c(Br)c(Br)cc21	260 to 264
CS(C)=Nc1nc(OCc2ccccc2)ncc1F	125 to 129

Compound	melting point [°C]
C=CC(C)(C)CC(NC(=O)c1ccc(Cl)cc1)NC(=NC#N)Nc1cccnc1 (configuration not stated)	171 to 172
CCCCCc1c(C(C)(C)O)nc(C(C)C)c(CO)c1-c1ccc(F)cc1	180 to 182
CCOc1ccc(NC(N)=S)cn1	142 to 146
CCOC(=O)/C(=C\Nc1cc(OC)cc(OC)c1)c1ccccc1	75 to 76
N#CCCn1cc(-c2cccc(Cl)c2Cl)c(C(F)(F)F)c1	83 to 85
Cc1nc(Cl)c2sccc2n1	82 to 84
COc1ccc(-c2oc3ccc(F)cc3c(=O)c2OCCOc2cccc(C(C)=C3SC(=O)NC3=O)c2)cc1OC	228 to 230
CN1C(=O)CC[C@]2(C)c3ccc(Sc4nc5c(F)cccc5s4)cc3CC[C@@H]12	140 to 145
CC(=O)NC[C@H]1CN(c2ccc(N3CCC(Cc4nnn(C)n4)CC3)c(F)c2)C(=O)O1	136 to 138
Nc1ccccc1Sc1c(N)[nH]c(=O)[nH]c1=O	> 310
NC(=O)c1cccc(N)c1N	103 to 105
CC(=O)OCc1ccc(C(=O)O)cc1	120 to 123
CCCCc1nc(CO)c(Br)[nH]1	160
Cc1ccc(C(=O)OCCOC(=O)NC2(C(=O)O)CC2)cc1	178 to 182
CCCCc1cc2c(N=C3SC[C@@H]4Cc5ccccc5CN34)cccc2cn1	82
COC(=O)C1=C(C(F)F)NC(C)=C(C(=O)OC(C)C)C1c1cccc([N+](=O)[O-])c1 (configuration not stated)	140 to 141
CCn1ncc2c(NCC3CCCCC3)c3cc(NC(C)=O)ccc3nc21	277 to 278
CCn1cc(C(=O)O)c(=O)c2cc(F)c(N3Cc4ccc(C(=O)OC)cc4C3)c(F)c21	264 to 267
CC(=O)NC(NC(=O)Nc1ccccc1)C(=O)NCc1ccccc1 (configuration not stated)	242
C#CCNc1cc(C(=O)OCC)cc(S(N)(=O)=O)c1Oc1ccccc1	189 to 190
CCOC(=O)c1c[nH]c2c(OC)csc2c1=O	244 to 247
CC(=O)Nc1ccc2sc3ccc(Br)cc3c(=O)c2c1	219 to 222

Results, then the compound that gave them:

melting point [°C]	Compound
221 to 222	Cc1ccc(-c2ccc(-c3ccc(C)cc3)n2-c2ccc(O)cc2)cc1
158 to 160	O=C1CCC(N2C(=O)c3cccc(NCCOCc4ccccc4)c3C2=O)C(=O)N1 (configuration not stated)
168 to 170	CSc1ccc2c(SCc3ccc(N(C)C)cc3)ccnc2c1
210 to 240	O=C(O)c1ccccc1-c1ccc(CNc2nc(Cl)nc3ccc(Cl)cc23)cc1
147 to 148	O=C(O)CON=C(c1ccc(Cl)cc1)c1ccc(Cl)cc1
208 to 210	c1ccc2c(c1)-c1ccccc1C21c2cccnc2-c2ncccc21
95 to 101	N#CCC=C1c2ccccc2C=Cc2ccccc21
267 to 268	O=C(O)c1cccnc1-c1ccc2[nH]nc(Nc3nccs3)c2c1
216	N#Cc1c(N2CCN(C(=O)c3ccco3)CC2)c2cc(F)cnc2n(Cc2ccccc2)c1=O
134 to 138	COCCNC(=O)c1cccc(-c2cccc3cc(C(C)(O)c4cccc(C(F)(F)F)c4)sc23)c1 (configuration not stated)
98 to 101	O=C(Cc1c(Cl)c(F)nc(F)c1Cl)OCc1ccccc1
152 to 154	Cc1cc(C)c2ncc(N)c(-c3ccccc3Cl)c2c1
249 to 250	Cc1cccc(Nc2nc(-n3nc(C)cc3C)nc3ccccc23)c1
148 to 150	C#Cc1cccc([C@H]2C[C@H]2NC(=O)Nc2ccc(Cl)cn2)c1 (racemic)
145 to 146	COC(=O)c1ccc2c(c1)S(=O)(=O)c1ccccc1C2=O
155 to 157	Cc1cc2c(cc1S(=O)(=O)c1cc(Cl)ccc1Cl)OC(C(=O)O)O2 (configuration not stated)

melting point [°C]	Compound
112	ClCCCn1c(Cc2ccccc2)nc2ccccc21
161 to 162	N=C(Nc1ccc(Cl)cc1)Nc1ncccc1OCc1c(F)cc(F)cc1F
52 to 54	CCCNC(=O)C1(CCCCN2CCC(N3Cc4ccccc4C3=O)CC2)c2ccccc2-c2cccnc21 (configuration not stated)
135 to 137	CC(C)(C)n1c(=O)c2c(-c3ccc(F)cc3)ncn2c2ccccc21
122	COC(=O)COc1ccc(-c2c(Br)ccc3sc4ccccc4c23)cc1
235 to 236	Cn1cc(C2=C(n3ccc4ccccc43)C(=O)NC2=O)c2ccccc21
244 to 245	O=C(O)Cc1ccc2oc3ncccc3c(=O)c2c1
214 to 216	CCCn1cnc2nc(-c3ccc(Cl)cc3)nn2c1=S
88 to 90	O=C(O)c1cc(=O)c2c(OCC(O)COc3ccccc3)cccc2o1 (configuration not stated)
226 to 229	Cc1ccc(C(=O)Nc2ccc(-n3ccnc3)c(C(F)(F)F)c2)cc1Nc1nccc(-c2cccnc2)n1
208 to 209	CN(C)C(=O)c1nn(-c2cccc(F)c2)c(=O)c2c1c1ccc(Cl)cc1n2C
153 to 155	CC(=O)Nc1ccccc1CSc1nccn1-c1ccncc1
83	COC(=O)Cn1ccc2ccc(-c3csc(-c4ccccc4)n3)cc21
182 to 186	Cc1c(NC(=O)c2ccc(-c3ccc(F)cc3)cc2)ccc2cc(C(O)c3ccccc3)cnc12 (configuration not stated)
161 to 163	COc1cn(-c2ccc(-n3c(=O)ccn3C(F)F)cc2F)nc(-c2ccnn2-c2ccccc2)c1=O
36 to 43	CCOC(=O)COc1cc(C=O)ccc1OCc1ccccc1
